Measured values as given in paper PMC11129182, “Development of Inhibitors, Probes, and PROTAC Provides a Complete Toolbox to Study PARK7 in the Living Cell” (Journal of Medicinal Chemistry, 2024).
Entries after “also recorded” stand apart in the source; their conditions may differ. Read-outs that look alike come from different tables or passages of the source.

How the values were obtained:
PARK7 [1] = target: T1, PARK7 (Homo sapiens, UniProt Q99497); experiment: Probe labeling of endogenous PARK7 in cells (HEK293T, A549); format: cell-based; details: for cellular PARK7 labeling efficiency over time: A549 cells, indicated time points; for cellular PARK7 labeling efficiency over time / labeling of PARK7 in cells: 5 μM; for labeling of PARK7 in cells: 24 h
T1 sequence (Q99497 1-189): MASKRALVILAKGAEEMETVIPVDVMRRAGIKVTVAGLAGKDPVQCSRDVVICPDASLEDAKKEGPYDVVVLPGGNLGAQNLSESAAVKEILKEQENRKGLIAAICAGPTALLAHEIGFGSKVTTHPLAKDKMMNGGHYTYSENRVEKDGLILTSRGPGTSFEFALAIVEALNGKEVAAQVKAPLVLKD
Experimental: To further investigate the ability of these probes to visualize PARK7 in cells, HEK293T and A549 cells were incubated with 5 μM of these probes for 24 h, followed by cell lysis, SDS-PAGE, fluorescence scanning, and immunostaining (Supporting Information Figure S7). […] We also observed a band shift of the PARK7 protein in the samples treated with JYQ-192, JYQ-196, and JYQ-197 by immunoblot against PARK7 in A549 cells. […] Therefore, we further investigated JYQ-192, JYQ-196, and JYQ-197. To characterize their cell permeability, A549 cells were incubated with 5 μM final concentration of these probes for the indicated time points, followed by confocal microscopy and by cell lysis, SDS-PAGE, fluorescence scanning, and immunostaining. All three probes already entered the cells after 1 h incubation (Supporting Information Figure S8A). […] Besides PARK7, we observed extra bands in the fluorescence scan for both HEK293T and A549 cells and a very strong band labeling between 55 and 75 kDa in A549 cells with a 5 μM final concentration of all probes.
Despite the fact that probe JYQ-196 outperformed SulfoCy5 probes JYQ-192 and JYQ-197 in terms of the cellular PARK7 labeling efficiency, this probe still lacked specificity toward PARK7. PARK7 is known to form dimers, trimers, and even high-molecular-weight complexes under nonreducing conditions.[29],[30] […] To investigate further whether lower concentrations of JYQ-196 can decrease unspecific labeling, HEK293T and A549 cells were incubated with increased concentrations (0–10 μM) of JYQ-196 for 4 h, followed by cell lysis, SDS-PAGE, fluorescence scanning, and immunostaining (Figure 4C).
Oligos used to knockdown PARK7 were purchased from Dharmacon (Cat#: MQ-005984-00-0002). Silencing was performed in HEK293T and A549 cells as follows: for a 24-well plate format, 50 μL of siRNA (500 nM stock) was incubated with 1 μL of Dharmafect reagent 1 (Dharmacon) diluted in 50 μL of medium without supplements (total volume of 100 μL of transfection mix) with gentle shaking for 20 min at room temperature (RT). A total of 30 × 10^3 HEK293T or 50 × 10^3 cells were added to transfection mixes to a total volume of 500 μL per well and cultured for 48 h prior to incubation with 5 μM final concentration of JYQ-196 for 4 h.
HEK293T or A549 cells were incubated with indicated concentration of the probes for the indicated time points, followed by cell lysis and adding loading buffer (4x).

PARK7 [2] = target: T1, PARK7; experiment: Probe labeling of purified recombinant PARK7; details: 1 μM PARK7, 1 h, 37 °C
Experimental: The ability of these probes to label and visualize PARK7 activity in vitro was evaluated by treating recombinant human PARK7 protein (1 μM) with a concentration series of the probes for 1 h at 37 °C, followed by SDS-PAGE analysis under nondenaturing conditions (without boiling and β-mercaptoethanol).
The assay was conducted in Tris-buffer (50 mM Tris-HCl, 150 mM NaCl, 2 mM TCEP, pH 7.5). PARK7 (1 μM final concentration) was incubated with different concentrations (0, 0.1, 0.5, 1, 2, 5, and 10 μM) of the indicated probes for 1 h at 37 °C. After completing the incubation time, all of the reactions were stopped by adding NuPAGE LDS sample buffer (4x).

PARK7 [3] = target: T1, PARK7; experiment: Cell-based competition assay with probe JYQ-92 in HEK293T cells; details: 24 h
Experimental: Samples were resolved by SDS-PAGE and analyzed by fluorescence scanning and Western blotting (Figure 2B). The target engagement of cellular PARK7 is reflected by the disappearance of the PARK7 labeling band in the fluorescence gel scan and by the loss of the shifted probe-labeled PARK7 band in the Western blot.
HEK293T cells were treated with the indicated concentrations of indicated inhibitors for indicated incubation time.
Figure S1. Assessment of the cell permeability of JYQ -88. (A) Structure of JYQ-92.
(B) Target engagement of JYQ-88 in HEK293T cells. HEK293T cells were incubated […]
with PARK7 probe JYQ-92 fo r 1 h at 37 °C. The reactions were stopped by the addition of NuPAGE™ LDS sample buffer (4x). Samples were resolved by SDS -PAGE using […]
fluorescence scanning on a Typhoon FLA 9500 (GE Healthcare Life Sciences) using […]
The disappearance of the JYQ-92-labeled band in […]
of JYQ-88 is used as a measurement of cellular PARK7 engagement with JYQ -88.
(§1) (1 picture or pasted object on this page, not shown here)

PARK7 [4] = target: T1, PARK7; experiment: Hit validation and pure-compound testing in the PARK7 FP assay with JYQ-107; format: biochemical; details: for inhibition at 0.25 µM: read-out: % Inhibition 0.25 µM
PARK7 [5] = target: T1, PARK7; details: read-out: IC50 (nM) DiFUMAc; 0.1 μM PARK7, 1 h preincubation, 300 μM DiFMUAc
Experimental: Compounds were transferred using a Labcyte Echo550 acoustic dispenser to obtain a 12-point serial dilution of 0.001–100 μM. Next, PARK7 (15 μL, final concentration 0.1 μM) was dispensed with a Biotek MultiFlowFX liquid dispenser and incubated for 1 h, followed by dispensing the substrate DiFMUAc (5 μL, final concentration 300 μM). The fluorescence intensity (FI) signal was monitored on a BMG Labtech PHERAstar plate reader (λex/em 350/450 nm) for 1 h.

DUBs = experiment: Activity-based DUB profiling with Rho-Ub-PA probe in HEK293T cells; format: cell-based, human; details: 5 µM, 24 h
Experimental: Figure S3. Activity evaluation of inhibitors against DUBs in HEK293T cells. (A ) Inhibitors from structure modification. (B) Inhibitors from HTS. HEK293T cells were […]
incubation with Rho- Ub-PA probe for 30 min at 37 °C. Samples were resolved by SDS - […]
and visualized by fluorescence scanning on a Typhoon FLA 9500 (GE Healthcare Life […]
Nitrocellulose membranes and Western blot analysis.
as §1

PARK7 [6] = target: T1, PARK7; experiment: High-throughput screen of the crude compound library, PARK7 fluorescence polarization (FP) assay with FP reagent JYQ-107; format: biochemical

Question: What does the source list for `CC[N+]1=C(/C=C/C=C/C=C2/N(CCCCCC(=O)NCCCc3cn(CC(=O)N4CCN(S(=O)(=O)c5cccc(C(=O)N6CCc7nc(NC(=O)[C@@H]8CCN(C#N)C8)sc7C6)c5)CC4)nn3)c3ccc(S(=O)(=O)[O-])cc3C2(C)C)C(C)(C)c2cc(S(=O)(=O)O)ccc21` [JYQ-192]?
Answer: cellular PARK7 labeling efficiency over time (PARK7 [1]): labeled a small portion of cellular PARK7 even after 24 h incubation; labeling of PARK7 in cells (PARK7 [1]; HEK293T and A549 cells): clear band around 25 kDa; probe concentration giving complete labeling of recombinant PARK7 (Coomassie band shift) (PARK7 [2]): 2 µM

Question: Which results are given for `N#CN1CC[C@@H](C(=O)Nc2nc3c(s2)CN(C(=O)CN=[N+]=[N-])CC3)C1` [JYQ-88, reference compound]?
Answer: cellular PARK7 engagement of JYQ-88 (PARK7 [3]; intact HEK293T cells, concentration series): did not show inhibition of PARK7 in cells; also recorded: poor cellular engagement; inhibition at 0.25 µM (PARK7 [4]; pure compounds): 55.4%; inhibition at 1 µM (PARK7 [4]; pure compounds): 83.2%; IC50 (PARK7 [5]): 120 nM

Question: `CC1=CC(C)=[N+]2C1=C(CCCCc1cn(CC(=O)N3CCN(S(=O)(=O)c4cccc(C(=O)N5CCc6nc(NC(=O)[C@@H]7CCN(C#N)C7)sc6C5)c4)CC3)nn1)c1c(C)cc(C)n1[B-]2(F)F` [JYQ-191] was tested. Which “labeling of PARK7 in cells” value (PARK7 [1]; HEK293T and A549 cells) did it give?
Answer: inefficient labeling of cellular PARK7

Question: And the “probe concentration giving complete labeling of recombinant PARK7 (Coomassie band shift)” value (PARK7 [2])?
Answer: 5 µM

Question: Which results are given for `CC(=O)N1CCN(S(=O)(=O)c2cccc(C(=O)N3CCc4nc(NC(=O)[C@@H]5CCN(C#N)C5)sc4C3)c2)CC1` [Compound 336, (R)-N-(5-(3-((4-Acetylpiperazin-1-yl)sulfonyl)benzoyl)-4,5,6,7-tetrahydrothiazolo[5,4-c]pyridin-2-yl)-1-cyanopyrrolidine-3-carboxamide]?
Answer: inhibition of DUBs in cells (DUBs): did not show interference with the activity of any DUB; inhibition at 1.25 µM (PARK7 [6]; 1.25 µM, crude compound library, read-out: HTS FP assay %Inhibition (1.25 µM)): 91.8%; concentration from which PARK7 is engaged (PARK7 [3]; HEK293T cells, 0.1–5 μM dilution series): 1 µM; inhibition at 0.25 µM (PARK7 [4]; crude compounds): 76.8%; inhibition at 0.5 µM (PARK7 [4]; crude compounds, 0.5 µM, read-out: % Inhibition 0.5 µM): 91.5%; inhibition at 1 µM (PARK7 [4]; crude compounds): 98.3%; % Inhibition 0.25 µM (PARK7 [4]; pure compounds): 87.6%; inhibition at 0.25 µM (PARK7 [4]; pure compounds): ~100%; inhibition at 1 µM (PARK7 [4]; pure compounds): 98.5%

Question: How did the “inhibition of DUBs in cells” value (DUBs) turn out when “(R)-N-(5-(3-(1,2,4-Oxadiazol-3-yl)benzoyl)-4,5,6,7-tetrahydrothiazolo[5,4-c]pyridin-2-yl)-1-cyanopyrrolidine-3-carboxamide [Compound 199]” was run?
Answer: showed inhibition of one or more DUBs, mainly UCHL1

Question: And the “HTS FP assay %Inhibition (1.25 µM)” value (PARK7 [6]; 1.25 µM, crude compound library)?
Answer: 95.3%

Question: And the “% Inhibition” value (PARK7 [6]; HTS of crude compound library, sheet "SMILES+%Inh HTS")?
Answer: 95.3%

Question: What about the “% Inhibition 0.25 µM” value (PARK7 [4]; crude compounds) of the same molecule?
Answer: 81.4%

Question: And the “% Inhibition 0.5 µM” value (PARK7 [4]; crude compounds, 0.5 µM)?
Answer: 91.6%

Question: And the “% Inhibition 1 µM” value (PARK7 [4]; crude compounds)?
Answer: 98.6%

Question: What about the “% Inhibition 0.25 µM” value (PARK7 [4]; pure compounds) of the same molecule?
Answer: 80.7%

Question: And the “% Inhibition 1 µM” value (PARK7 [4]; pure compounds)?
Answer: 94.6%

Question: How did the “cellular PARK7 labeling efficiency over time” value (PARK7 [1]) turn out when `CC1=CC(C)=[N+]2C1=C(CCCCc1cn(-c3ccc(F)c(C(=O)N4CCc5nc(NC(=O)[C@@H]6CCN(C#N)C6)sc5C4)c3)nn1)c1c(C)cc(C)n1[B-]2(F)F` [JYQ-196] was run?
Answer: complete labeling of cellular PARK7 after 4 h incubation

Question: What about the “labeling of PARK7 in cells” value (PARK7 [1]; HEK293T and A549 cells) of the same molecule?
Answer: clear band around 25 kDa

Question: What about the “specificity of labeling (PARK7 siRNA depletion)” value (PARK7 [1]; HEK293T and A549 cells, siPARK7 48 h, then 5 μM for 4 h) of the same molecule?
Answer: unspecific labeling of other proteins

Question: What about the “probe concentration giving complete labeling of recombinant PARK7 (Coomassie band shift)” value (PARK7 [2]) of the same molecule?
Answer: 2 µM

Question: Which IC50 (PARK7 [5]) does the source give for `O=C1C(=O)N(CCc2ccccc2)c2ccc(F)cc21` [STK793590] here?
Answer: 130 nM

Question: Which results are given for `CC[N+]1=C(/C=C/C=C/C=C2/N(CCCCCC(=O)NCCCc3cn(-c4ccc(F)c(C(=O)N5CCc6nc(NC(=O)[C@@H]7CCN(C#N)C7)sc6C5)c4)nn3)c3ccc(S(=O)(=O)O)cc3C2(C)C)C(C)(C)c2cc(S(=O)(=O)[O-])ccc21` [JYQ-197]?
Answer: cellular PARK7 labeling efficiency over time (PARK7 [1]): labeled a small portion of cellular PARK7 even after 24 h incubation; labeling of PARK7 in cells (PARK7 [1]; HEK293T and A549 cells): clear band around 25 kDa; probe concentration giving complete labeling of recombinant PARK7 (Coomassie band shift) (PARK7 [2]): 1 µM
